Assay results taken from paper PMC3265452 (PLoS Neglected Tropical Diseases, 2012).
Structures can show the parent of a compound that is named as a salt.

These molecules were tested against AaDOP2 (Aedes aegypti, UniProt H6D5H2) (assay: AaDOP2 antagonist screen of the LOPAC1280 library (HEK-CRELuc-Aadop2 cells, luminescence)). Settings: not given.
Chain of AaDOP2 (H6D5H2 1-476): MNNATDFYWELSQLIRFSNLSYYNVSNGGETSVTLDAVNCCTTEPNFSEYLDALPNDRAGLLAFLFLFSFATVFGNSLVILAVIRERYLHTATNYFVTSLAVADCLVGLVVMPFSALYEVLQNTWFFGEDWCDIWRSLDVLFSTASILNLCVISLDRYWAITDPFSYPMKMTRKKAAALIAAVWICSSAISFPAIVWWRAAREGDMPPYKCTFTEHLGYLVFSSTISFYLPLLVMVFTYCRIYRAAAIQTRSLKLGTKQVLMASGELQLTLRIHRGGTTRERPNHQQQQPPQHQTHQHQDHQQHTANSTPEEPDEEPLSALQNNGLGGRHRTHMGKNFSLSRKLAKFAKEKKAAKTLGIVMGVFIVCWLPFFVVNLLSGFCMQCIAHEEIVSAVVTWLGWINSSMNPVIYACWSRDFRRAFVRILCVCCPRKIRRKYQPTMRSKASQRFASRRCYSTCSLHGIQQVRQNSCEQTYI
Type: cell-based
In the case of `Nc1ncnc2c1ncn2[C@@H]1O[C@H](CO)[C@@H](O)[C@H]1O` [Compound 101, Adenosine], the “Compound effect (percent receptor signaling in presence of test compound, relative lux units relative to the SCH23390 control)” value is reported as 96.
`N[C@@H](CC(=O)O)C(=O)O` [Compound 102, L-Aspartic acid] was tested, and the “Compound effect (percent receptor signaling in presence of test compound, relative lux units relative to the SCH23390 control)” value was 106.
`CC1=C(/C=C/C(C)=C/C=C/C(C)=C/C=C/C=C(C)/C=C/C=C(C)/C=C/C2=C(C)C(=O)[C@@H](O)CC2(C)C)C(C)(C)C[C@H](O)C1=O` [Compound 103, Astaxanthin] was tested, and the “Compound effect (percent receptor signaling in presence of test compound, relative lux units relative to the SCH23390 control)” value was 106.
For `Nc1ccc(N2C(=O)c3ccccc3C2=O)c(Cl)c1` [Compound 104, N-(4-Amino-2-chlorophenyl)phthalimide], the “Compound effect (percent receptor signaling in presence of test compound, relative lux units relative to the SCH23390 control)” value was 99.
For `C[C@]12CCC(=O)C=C1CC[C@@H]1[C@@H]2CC[C@]2(C)C(=O)CC[C@@H]12` [Compound 108, 4-Androstene-3,17-dione], the “Compound effect (percent receptor signaling in presence of test compound, relative lux units relative to the SCH23390 control)” value was 115.
`COc1cc(NS(C)(=O)=O)ccc1Nc1c2ccccc2nc2ccccc12` [Compound 112, Amsacrine hydrochloride] was tested, and the “Compound effect (percent receptor signaling in presence of test compound, relative lux units relative to the SCH23390 control)” value was 97.
For `CN(Cc1cnc2nc(N)nc(N)c2n1)c1ccc(C(=O)N[C@@H](CCC(=O)O)C(=O)O)cc1` [Compound 114, (-)Amethopterin], the “Compound effect (percent receptor signaling in presence of test compound, relative lux units relative to the SCH23390 control)” value was 116.
With `COc1ccc(C(=O)N2CCCC2=O)cc1` [Compound 116, Aniracetam] the “Compound effect (percent receptor signaling in presence of test compound, relative lux units relative to the SCH23390 control)” value was 101.
For `CCn1c(=O)c2[nH]c(-c3ccccc3)nc2n(CC)c1=O` [Compound 117, 1,3-Diethyl-8-phenylxanthine], the “Compound effect (percent receptor signaling in presence of test compound, relative lux units relative to the SCH23390 control)” value was 105.
For `Cn1c(=O)c2[nH]c(-c3ccc(S(=O)(=O)O)cc3)nc2n(C)c1=O` [Compound 118, 8-(p-Sulfophenyl)theophylline], the “Compound effect (percent receptor signaling in presence of test compound, relative lux units relative to the SCH23390 control)” value was 98.
For `CCCn1c(=O)c2[nH]c(-c3ccc(S(=O)(=O)O)cc3)nc2n(CCC)c1=O` [Compound 119, 1,3-Dipropyl-8-p-sulfophenylxanthine], the “Compound effect (percent receptor signaling in presence of test compound, relative lux units relative to the SCH23390 control)” value was 91.
`NCCNC(=O)Cc1ccc(NC(=O)Cc2ccc(Nc3ncnc4c3ncn4[C@@H]3O[C@H](CO)[C@@H](O)[C@H]3O)cc2)cc1` [Compound 122, Adenosine amine congener] was tested, and the “Compound effect (percent receptor signaling in presence of test compound, relative lux units relative to the SCH23390 control)” value was 105.
In the case of `CN1[C@@H]2CC[C@H]1C[C@@H](OC(c1ccccc1)c1ccccc1N)C2` (some centres unmarked) [Compound 125, Aminobenztropine], the “Compound effect (percent receptor signaling in presence of test compound, relative lux units relative to the SCH23390 control)” value is reported as 30.
For `C#CCOC(=O)C1=CCCN(C)C1` [Compound 126, Arecaidine propargyl ester hydrobromide], the “Compound effect (percent receptor signaling in presence of test compound, relative lux units relative to the SCH23390 control)” value was 85.
In the case of `C=CCn1c(=O)c2c(nc(-c3ccc(S(=O)(=O)O)cc3)n2C)n(C)c1=O` [Compound 129, 1-Allyl-3,7-dimethyl-8-p-sulfophenylxanthine], the “Compound effect (percent receptor signaling in presence of test compound, relative lux units relative to the SCH23390 control)” value is reported as 100.
With `Cl.NC1(C(=O)O)CCCCC1` [Compound 132, 1-Amino-1-cyclohexanecarboxylic acid hydrochloride] the “Compound effect (percent receptor signaling in presence of test compound, relative lux units relative to the SCH23390 control)” value was 110.
For `CC(N)C(=O)OC(C)(C)Cc1ccc(Cl)cc1` (centres unmarked) [Compound 133, Alaproclate hydrochloride], the “Compound effect (percent receptor signaling in presence of test compound, relative lux units relative to the SCH23390 control)” value was 110.
For `CCN(CC)CC.Nc1ncnc2c1ncn2C1OC2COP(O)(=S)O[C@@H]2[C@@H]1O` (some centres unmarked) [Compound 134, Rp-cAMPS triethylamine], the “Compound effect (percent receptor signaling in presence of test compound, relative lux units relative to the SCH23390 control)” value was 67.
For `N[C@H](CCCCCP(=O)(O)O)C(=O)O` [Compound 136, D(-)-2-Amino-7-phosphonoheptanoic acid], the “Compound effect (percent receptor signaling in presence of test compound, relative lux units relative to the SCH23390 control)” value was 102.
With `CC(=O)c1ccc(S(=O)(=O)NC(=O)NC2CCCCC2)cc1` [Compound 137, Acetohexamide] the “Compound effect (percent receptor signaling in presence of test compound, relative lux units relative to the SCH23390 control)” value was 115.
`CP(=O)(O)CCCN.Cl` [Compound 138, SKF 97541 hydrochloride] was tested, and the “Compound effect (percent receptor signaling in presence of test compound, relative lux units relative to the SCH23390 control)” value was 101.
`NC/C=C\C(=O)O` [Compound 139, cis-4-Aminocrotonic acid] was tested, and the “Compound effect (percent receptor signaling in presence of test compound, relative lux units relative to the SCH23390 control)” value was 95.
In the case of `Nc1ccc(CCNc2ncnc3c2ncn3[C@@H]2O[C@H](CO)[C@@H](O)[C@H]2O)cc1` [Compound 140, N6-2-(4-Aminophenyl)ethyladenosine], the “Compound effect (percent receptor signaling in presence of test compound, relative lux units relative to the SCH23390 control)” value is reported as 97.
With `CC1=C[C@@H]2c3cccc4[nH]cc(c34)C[C@H]2N(C)C1` [Compound 141, Agroclavine] the “Compound effect (percent receptor signaling in presence of test compound, relative lux units relative to the SCH23390 control)” value was 98.
In the case of `O=c1nc2[nH]c3ccccc3nc-2c(=O)[nH]1` [Compound 144, Alloxazine], the “Compound effect (percent receptor signaling in presence of test compound, relative lux units relative to the SCH23390 control)” value is reported as 104.
With `O=C(O)[C@@H]1C[C@H](C(=O)O)N1` [Compound 145, cis-Azetidine-2,4-dicarboxylic acid] the “Compound effect (percent receptor signaling in presence of test compound, relative lux units relative to the SCH23390 control)” value was 112.
`NC1(C(=O)O)CCc2cc(C(=O)O)ccc21` (centres unmarked) [Compound 148, AIDA] was tested, and the “Compound effect (percent receptor signaling in presence of test compound, relative lux units relative to the SCH23390 control)” value was 95.
`CC(C)(C)c1o[nH]c(=O)c1CC(N)C(=O)O` (centres unmarked) [Compound 150, ATPA] was tested, and the “Compound effect (percent receptor signaling in presence of test compound, relative lux units relative to the SCH23390 control)” value was 101.
For `CC(=O)C(C)=NO` [Compound 153, 2,3-Butanedione monoxime], the “Compound effect (percent receptor signaling in presence of test compound, relative lux units relative to the SCH23390 control)” value was 131.
`CC[C@H](NC(=O)c1c(C)c(-c2ccccc2)nc2ccccc12)c1ccccc1` [Compound 154, SB 222200] was tested, and the “Compound effect (percent receptor signaling in presence of test compound, relative lux units relative to the SCH23390 control)” value was 92.
For `COc1ccc2c(c1)c(CC(=O)O)c(C)n2C(=O)c1ccccc1` [Compound 155, 1-benzoyl-5-methoxy-2-methylindole-3-acetic acid], the “Compound effect (percent receptor signaling in presence of test compound, relative lux units relative to the SCH23390 control)” value was 105.
`O=C1C=CC(=O)C=C1` [Compound 156, p-Benzoquinone] was tested, and the “Compound effect (percent receptor signaling in presence of test compound, relative lux units relative to the SCH23390 control)” value was 96.
With `O=S(=O)(NCCNC/C=C/c1ccc(Br)cc1)c1cccc2cnccc12` [Compound 158, H-89] the “Compound effect (percent receptor signaling in presence of test compound, relative lux units relative to the SCH23390 control)” value was 46.
`O=C1O/C(=C/Br)CCC1c1cccc2ccccc12` (centres unmarked) [Compound 159, Bromoenol lactone] was tested, and the “Compound effect (percent receptor signaling in presence of test compound, relative lux units relative to the SCH23390 control)” value was 103.
In the case of `NC(=O)c1ccccc1` [Compound 160, Benzamide], the “Compound effect (percent receptor signaling in presence of test compound, relative lux units relative to the SCH23390 control)” value is reported as 100.
With `O=[N+]([O-])c1cccc2c(Br)n[nH]c12` [Compound 161, 3-Bromo-7-nitroindazole] the “Compound effect (percent receptor signaling in presence of test compound, relative lux units relative to the SCH23390 control)” value was 83.
With `CC(C)C[C@H]1C(=O)N2CCC[C@H]2[C@]2(O)O[C@](NC(=O)[C@@H]3C=C4c5cccc6[nH]c(Br)c(c56)C[C@H]4N(C)C3)(C(C)C)C(=O)N12.CS(=O)(=O)O` [Compound 162, (+)-Bromocriptine methanesulfonate] the “Compound effect (percent receptor signaling in presence of test compound, relative lux units relative to the SCH23390 control)” value was 37.
For `Nc1nc(OCc2ccccc2)c2nc[nH]c2n1` [Compound 163, O6-benzylguanine], the “Compound effect (percent receptor signaling in presence of test compound, relative lux units relative to the SCH23390 control)” value was 80.

Same assay, conditions: 10 µM compound, 300 nM dopamine, 2 hr; hit = compound effect <20
In the case of `NC(N)=NC(=O)c1nc(Cl)c(N2CCCCCC2)nc1N` [Compound 107, 5-(N,N-hexamethylene)amiloride], the “Compound effect (percent receptor signaling in presence of test compound, relative lux units relative to the SCH23390 control)” value is reported as 82%.
In the case of `Cl.c1ccc(CN(CC2=NCCN2)c2ccccc2)cc1` [Compound 115, Antozoline hydrochloride], the “Compound effect (percent receptor signaling in presence of test compound, relative lux units relative to the SCH23390 control)” value is reported as 115%.
`CNC(=O)[C@H]1O[C@@H](n2cnc3c(N)ncnc32)[C@H](O)[C@@H]1O` [Compound 121, 5'-N-Methyl carboxamidoadenosine] was tested, and the “Compound effect (percent receptor signaling in presence of test compound, relative lux units relative to the SCH23390 control)” value was 114%.
In the case of `Cl.Cn1ccc2cc(NC(=O)Nc3cccnc3)ccc21` [Compound 135, SB 200646 hydrochloride], the “Compound effect (percent receptor signaling in presence of test compound, relative lux units relative to the SCH23390 control)” value is reported as 106%.
`C#CC(N)CCC(=O)O` (centres unmarked) [Compound 142, gamma-Acetylinic GABA] was tested, and the “Compound effect (percent receptor signaling in presence of test compound, relative lux units relative to the SCH23390 control)” value was 104%.
For `CNC(=O)[C@H]1O[C@@H](n2cnc3c(NCc4ccc(N)cc4)ncnc32)[C@H](O)[C@@H]1O` [Compound 143, AB-MECA], the “Compound effect (percent receptor signaling in presence of test compound, relative lux units relative to the SCH23390 control)” value was 100%.
For `CC(C)C1C2CCC(C2)C1N.Cl` (centres unmarked) [Compound 147, AGN 192403 hydrochloride], the “Compound effect (percent receptor signaling in presence of test compound, relative lux units relative to the SCH23390 control)” value was 109%.
`Cl.NC[C@@H]1O[C@H](C23CC4CC(CC(C4)C2)C3)Cc2c1ccc(O)c2O` [Compound 149, A-77636 hydrochloride] was tested, and the “Compound effect (percent receptor signaling in presence of test compound, relative lux units relative to the SCH23390 control)” value was 113%.
For `CCN(CC)c1ncnc2c1ncn2[C@@H]1O[C@H](COP(=O)([O-])OP(=O)([O-])C(Br)(Br)P(=O)([O-])O)[C@@H](O)[C@H]1O.[Na+].[Na+].[Na+]` [Compound 151, ARL 67156 trisodium salt], the “Compound effect (percent receptor signaling in presence of test compound, relative lux units relative to the SCH23390 control)” value was 115%.
`C[C@H]1C[C@H]2[C@@H]3CCC4=CC(=O)C=C[C@]4(C)[C@@]3(Cl)[C@@H](O)C[C@]2(C)[C@@]1(O)C(=O)CO` [Compound 152, Beclomethasone] was tested, and the “Compound effect (percent receptor signaling in presence of test compound, relative lux units relative to the SCH23390 control)” value was 97%.
`Nc1nc2c(nc(Br)n2[C@@H]2O[C@@H]3COP(=O)([O-])O[C@H]3[C@H]2O)c(=O)[nH]1.[Na+]` [Compound 157, 8-Bromo-cGMP sodium] was tested, and the “Compound effect (percent receptor signaling in presence of test compound, relative lux units relative to the SCH23390 control)” value was 117%.
For `CC(=O)NBr` [Compound 164, N-Bromoacetamide], the “Compound effect (percent receptor signaling in presence of test compound, relative lux units relative to the SCH23390 control)” value was 104%.
